Source: PMC7440668, “Nitrogen coordinated import and export of arginine across the yeast vacuolar membrane” (PLoS Genetics, 2020)
Blank lines part the entries; values can stand above or below the compound they belong to.

Experiments:
Assay type in all cases: biochemical
Ypq2 [1] = biological target: T1, Ypq2 (Saccharomyces cerevisiae, UniProt Q06328); experiment: inhibition of Ypq2-dependent […]-Arg uptake into isolated vacuoles, […] min; conditions: 50 μM 14C-Arg, no ATP; competitor added simultaneously
T1 construct: native full-length protein in isolated intact vacuoles; ypq1-2-3 triple-mutant background subtracted from ypq1-3 double-mutant
T1 sequence (Q06328 1-317): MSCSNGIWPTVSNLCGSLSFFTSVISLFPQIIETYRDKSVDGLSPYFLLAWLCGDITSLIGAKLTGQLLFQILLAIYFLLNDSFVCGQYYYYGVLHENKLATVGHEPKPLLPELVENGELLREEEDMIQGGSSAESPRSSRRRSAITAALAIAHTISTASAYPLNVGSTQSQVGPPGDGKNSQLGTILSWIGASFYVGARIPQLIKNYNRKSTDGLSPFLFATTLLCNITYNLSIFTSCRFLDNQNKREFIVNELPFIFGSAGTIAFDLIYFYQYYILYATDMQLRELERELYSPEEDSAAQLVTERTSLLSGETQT

Ypq2 [2] = biological target: T1, Ypq2; experiment: as above; conditions: read-out: % inhibition at 5 mM
Avt1 = biological target: T2, Avt1 (Saccharomyces cerevisiae, UniProt P47082); experiment: 3H-L-tyrosine uptake into isolated intact vacuoles, wild type versus avt1 deletion; conditions: 50 μM 3H-tyrosine, 4 mM ATP, 27 °C; needs H+ gradient; labelled compound
T2 construct: native full-length protein in isolated intact vacuoles; wild type versus avt1 deletion mutant
T2 sequence (P47082 1-602): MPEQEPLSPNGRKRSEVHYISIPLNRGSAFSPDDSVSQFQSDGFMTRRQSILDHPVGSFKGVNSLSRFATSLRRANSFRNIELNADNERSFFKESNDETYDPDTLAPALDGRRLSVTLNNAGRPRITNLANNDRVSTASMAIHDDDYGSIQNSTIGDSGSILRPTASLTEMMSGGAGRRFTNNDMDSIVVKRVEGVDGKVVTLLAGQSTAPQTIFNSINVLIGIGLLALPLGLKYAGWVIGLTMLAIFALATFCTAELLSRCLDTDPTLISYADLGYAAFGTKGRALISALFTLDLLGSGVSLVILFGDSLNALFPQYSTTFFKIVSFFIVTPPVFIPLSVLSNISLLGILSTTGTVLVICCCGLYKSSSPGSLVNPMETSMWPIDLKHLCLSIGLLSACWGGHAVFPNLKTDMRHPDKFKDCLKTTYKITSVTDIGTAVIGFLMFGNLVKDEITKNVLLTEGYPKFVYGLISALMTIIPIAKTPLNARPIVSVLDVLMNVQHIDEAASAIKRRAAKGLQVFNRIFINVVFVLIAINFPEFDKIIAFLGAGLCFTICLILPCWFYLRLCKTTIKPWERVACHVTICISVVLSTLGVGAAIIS

SMILES: N=C(N)NOCC[C@H](N)C(=O)O [Canavanine]
% inhibition at 5 mM (Ypq2 [1]): Canavanine, the D-Arg and the L- and D-isomers of His completely inhibited the uptake

SMILES: N=C(N)NCCC[C@@H](N)C(=O)O [D-Arg]
% inhibition at 5 mM (Ypq2 [1]): Canavanine, the D-Arg and the L- and D-isomers of His completely inhibited the uptake

SMILES: N[C@H](Cc1c[nH]cn1)C(=O)O [D-isomer of His]
% inhibition at 5 mM (Ypq2 [1]): Canavanine, the D-Arg and the L- and D-isomers of His completely inhibited the uptake

SMILES: N[C@@H](Cc1cnc[nH]1)C(=O)O [His]
% inhibition at 5 mM (Ypq2 [1]): Canavanine, the D-Arg and the L- and D-isomers of His completely inhibited the uptake

SMILES: NCCCC[C@H](N)C(=O)O [Lys]
inhibition at 5000 µM (Ypq2 [2]): ~50%

inhibition at 5000 µM (Ypq2 [2]): ~50%
SMILES: NCCC[C@H](N)C(=O)O [ornithine]

SMILES: N[C@@H](Cc1ccc(O)cc1)C(=O)O [tyrosine]
3H-L-tyrosine uptake into isolated intact vacuoles, wild type versus avt1 deleti (Avt1): Nor was it detected in vacuoles isolated from the avt1Δ mutant
